Test [1] deals with Mutans Streptococci Strains. The experiment in a line: MIC and MBC, broth dilution, all strains stated together. The class given is cell-based, S. mutans (GS-5 and UA159) and S. sobrinus 6715. The method, then:
(§1) The minimum inhibitory concentration (MIC) and minimum bactericidal concentration (MBC) were determined for each test compound according to the National Committee for Clinical Laboratory Standards guidelines (Tentative standard M26-T, 1992; NCCLS Publication No. M7-A5, 2000) and Koo et al. (2000b). The broth microdilution and macrodilution methods (in TSB) were used for the antibacterial tests. The starting inoculum was 5×10^5 CFU/ml and the concentrations of test compounds ranged from 15.6 to 500 μM (two-fold dilutions). The MICs and MBCs were determined in quadruplicate in at least 3 different experiments.

For test [2], the system named is Streptococcus mutans UA 159. Nature of the test: MIC and MBC, broth dilution. The class given is cell-based. As to the method: as §1
In general terms: In broth dilution the organism is exposed to a series of concentrations in liquid medium.

Test [3] deals with Streptococcus sobrinus 6715. The experiment in a line: MIC and MBC, broth dilution. The class given is cell-based. To be noted: Streptococcus sobrinus 6715. The method, then: as §1
For test [4], the system named is Streptococcus mutans GS-5. Nature of the test: MIC and MBC, broth dilution. Format: cell-based. The method, then:
as §1

Test [5] has as its target T1, GTF C (Streptococcus mutans serotype c, UniProt P13470).
T1 construct: The supernatant was carefully collected as the source of GTF C; made in house; host or cells: Streptococcus mutans WHB 410 (endogenous gtfC; urea/Triton extract of washed cells, hydroxyapatite chromatography)
The experiment in a line: GTF activity in solution, GTF C. The class given is biochemical. To be noted: read-out: GTF C sol. % of Inhib. As to the method:
(§2) Glucosyltransferase activity was measured by the incorporation of [^14C-glucose] from labeled sucrose (NEN Research Products, Boston, Mass.) into glucans (Germaine et al., 1974; Venkitaraman et al., 1995). The GTF enzyme added to each sample for all assays was equivalent to the amount required to incorporate 1.0-1.5 μmol of glucose over the four hours reaction (1.0-1.5 units).
(§3) For solution assays, purified GTF B, C, D and Ss were mixed with a two-fold dilution series of the test compounds (concentration ranging from 125 to 500 μM) and incubated with [^14C-glucose]-sucrose substrate (0.2 μCi/ml) (200.0 mmol/l sucrose, 40 μmol/l dextran 9000, 0.02% sodium azide in adsorption buffer—50 mM KCl, 1.0 mM KPO4, 1.0 mM CaCl2, 0.1 mM MgCl2−pH=6.5) to reach a final concentration of 100 mmol/l sucrose (200 μl final volume). For the control, the same reaction was carried out, where ethanol:DMSO (final concentration of 7.5% and 1.25%, v/v) or ethanol (final concentration of 5%, v/v) replaced the test agent solutions. The samples were incubated 37° C. with rocking for 4 h. After incubation, ice-cold ethanol (1.0 ml) was added and the samples were stored for 18 h, 4° C. for precipitation of glucans. Radiolabeled glucan was determined by scintillation counting (Germaine et al., 1974; Venkitaraman et al., 1995).

In test [6] the target is T1, GTF C. The experiment in a line: GTF activity adsorbed onto sHA surface, GTF C. Format: biochemical. To be noted: read-out: GTF C surf. % of Inhib. The method, then: as §2
(§4) For surface assays, the GTFs were adsorbed to hydroxyapatite beads coated with clarified whole saliva (free of GTF activity), as detailed elsewhere (Koo et al., 2000c; Schilling and Bowen, 1988, Venkitaraman et al., 1995). The saliva-coated hydroxyapatite (sHA) beads were exposed to sufficient enzyme to saturate the surface as determined experimentally. Following the adsorption of the enzyme, the beads were washed 3 times with buffer to remove the loosely bound material and exposed to 300 μl of the two-fold dilution series of test compounds (or control) for 30 min. at the same concentrations described above. The beads were washed and exposed to 300 μl [^14C-glucose]-sucrose substrate (100.0 mmol/l sucrose, final concentration). The radiolabeled glucan formed was collected and quantified by scintillation counting (Germaine et al., 1974; Venkitaraman et al., 1995). All the solution and surface assays were done in quadruplicate in at least 3 different experiments.

The target of test [7] is T2, GTF B (Streptococcus mutans serotype c, UniProt P08987).
T2 construct: made in house; host or cells: Streptococcus milleri KSB8 (culture supernatant)
T2 sequence (P08987 35-1476): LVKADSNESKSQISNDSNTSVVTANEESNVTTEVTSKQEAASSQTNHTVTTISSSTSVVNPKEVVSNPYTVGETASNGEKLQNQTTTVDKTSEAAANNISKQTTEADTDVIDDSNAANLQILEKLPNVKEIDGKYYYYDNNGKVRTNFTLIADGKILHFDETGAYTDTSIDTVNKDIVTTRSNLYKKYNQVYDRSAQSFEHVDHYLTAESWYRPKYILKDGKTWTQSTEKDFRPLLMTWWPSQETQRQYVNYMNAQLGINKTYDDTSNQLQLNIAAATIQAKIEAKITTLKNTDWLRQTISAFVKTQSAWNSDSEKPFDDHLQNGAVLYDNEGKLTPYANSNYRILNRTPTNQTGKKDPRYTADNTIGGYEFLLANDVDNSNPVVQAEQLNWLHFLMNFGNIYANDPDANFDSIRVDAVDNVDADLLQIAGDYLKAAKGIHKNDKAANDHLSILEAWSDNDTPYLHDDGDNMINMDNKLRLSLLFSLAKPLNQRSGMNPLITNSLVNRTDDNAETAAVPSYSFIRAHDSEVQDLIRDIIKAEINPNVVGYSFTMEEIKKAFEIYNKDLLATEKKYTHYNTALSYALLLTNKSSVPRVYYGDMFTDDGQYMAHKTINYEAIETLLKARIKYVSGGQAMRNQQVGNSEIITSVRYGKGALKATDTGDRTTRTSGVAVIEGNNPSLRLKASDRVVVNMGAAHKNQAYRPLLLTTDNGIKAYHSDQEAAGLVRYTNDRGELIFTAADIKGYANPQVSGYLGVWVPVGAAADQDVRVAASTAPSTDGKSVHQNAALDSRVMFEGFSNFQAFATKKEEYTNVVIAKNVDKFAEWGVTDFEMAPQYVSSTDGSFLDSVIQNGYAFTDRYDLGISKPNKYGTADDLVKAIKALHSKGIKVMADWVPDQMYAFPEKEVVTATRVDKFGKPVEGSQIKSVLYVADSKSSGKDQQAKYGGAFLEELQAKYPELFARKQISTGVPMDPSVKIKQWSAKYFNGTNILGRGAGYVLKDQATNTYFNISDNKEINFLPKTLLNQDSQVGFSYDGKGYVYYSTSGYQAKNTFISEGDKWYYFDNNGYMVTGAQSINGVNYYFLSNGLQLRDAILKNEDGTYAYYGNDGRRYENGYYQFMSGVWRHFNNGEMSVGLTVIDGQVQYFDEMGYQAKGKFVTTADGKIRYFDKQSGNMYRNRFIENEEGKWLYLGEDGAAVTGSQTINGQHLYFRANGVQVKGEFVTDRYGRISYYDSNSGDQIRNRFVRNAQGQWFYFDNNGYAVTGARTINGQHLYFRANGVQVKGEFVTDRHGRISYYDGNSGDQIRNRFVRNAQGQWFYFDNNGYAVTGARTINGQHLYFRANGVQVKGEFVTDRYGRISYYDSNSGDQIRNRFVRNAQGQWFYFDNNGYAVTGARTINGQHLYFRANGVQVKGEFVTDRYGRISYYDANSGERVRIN
Nature of the test: GTF activity adsorbed onto saliva-coated hydroxyapatite (sHA) surface, GTF B. The class given is biochemical. The following applies: read-out: GTF B surf. % of Inhib. The method, then:
as §2, §4

For test [8], the target named is T3, GTF D (Streptococcus mutans serotype c, UniProt P49331).
T3 construct: made in house; host or cells: Streptococcus milleri NH5 (culture supernatant)
T3 sequence (P49331 whole entry): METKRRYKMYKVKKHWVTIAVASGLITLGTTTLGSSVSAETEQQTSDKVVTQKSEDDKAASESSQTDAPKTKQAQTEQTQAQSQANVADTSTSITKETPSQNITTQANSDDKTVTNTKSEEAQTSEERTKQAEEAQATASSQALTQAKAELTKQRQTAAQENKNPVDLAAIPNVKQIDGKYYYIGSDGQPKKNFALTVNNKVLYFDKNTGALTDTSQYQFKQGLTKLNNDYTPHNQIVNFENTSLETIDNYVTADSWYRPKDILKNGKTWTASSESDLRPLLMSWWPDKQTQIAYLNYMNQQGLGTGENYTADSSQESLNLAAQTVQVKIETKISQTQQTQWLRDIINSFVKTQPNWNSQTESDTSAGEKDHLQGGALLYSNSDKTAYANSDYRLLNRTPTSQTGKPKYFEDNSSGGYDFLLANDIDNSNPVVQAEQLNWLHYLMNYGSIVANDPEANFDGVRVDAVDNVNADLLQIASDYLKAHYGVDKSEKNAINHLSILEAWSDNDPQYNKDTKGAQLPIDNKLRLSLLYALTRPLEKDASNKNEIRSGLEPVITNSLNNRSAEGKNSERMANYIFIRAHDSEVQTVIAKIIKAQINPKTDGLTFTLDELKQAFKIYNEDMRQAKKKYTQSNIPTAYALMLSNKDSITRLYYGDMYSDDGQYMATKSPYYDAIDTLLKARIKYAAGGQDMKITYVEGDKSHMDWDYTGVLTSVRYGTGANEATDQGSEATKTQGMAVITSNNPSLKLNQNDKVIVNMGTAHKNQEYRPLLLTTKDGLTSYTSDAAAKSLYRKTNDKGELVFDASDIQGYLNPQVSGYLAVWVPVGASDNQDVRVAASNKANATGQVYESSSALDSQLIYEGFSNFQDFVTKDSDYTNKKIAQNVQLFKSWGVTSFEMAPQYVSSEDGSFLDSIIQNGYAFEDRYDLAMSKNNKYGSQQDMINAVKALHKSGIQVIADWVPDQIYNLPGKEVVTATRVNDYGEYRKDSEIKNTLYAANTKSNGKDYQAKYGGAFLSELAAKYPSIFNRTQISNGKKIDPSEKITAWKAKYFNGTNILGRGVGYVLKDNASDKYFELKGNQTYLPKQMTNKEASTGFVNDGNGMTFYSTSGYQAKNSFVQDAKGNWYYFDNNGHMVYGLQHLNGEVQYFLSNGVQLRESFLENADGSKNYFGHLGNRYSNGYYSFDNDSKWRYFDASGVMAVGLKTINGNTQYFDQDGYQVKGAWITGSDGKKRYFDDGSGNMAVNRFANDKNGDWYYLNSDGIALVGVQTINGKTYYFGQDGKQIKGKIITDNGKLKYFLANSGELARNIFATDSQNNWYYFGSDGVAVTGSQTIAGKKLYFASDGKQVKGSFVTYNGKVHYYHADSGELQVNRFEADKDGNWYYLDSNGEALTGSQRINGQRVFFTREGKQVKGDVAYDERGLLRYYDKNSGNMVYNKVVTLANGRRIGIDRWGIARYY
Nature of the test: GTF activity adsorbed onto sHA surface, GTF D. The following applies: read-out: GTF D surf. % of Inhib. The class given is biochemical. As to the method: as §2, §4

In test [9] the target is T4, GTF Ss (Streptococcus sanguinis, UniProt A3CLJ9). The experiment in a line: GTF activity adsorbed onto sHA surface, GTF Ss. The class given is biochemical, S. sanguinis. The following applies: read-out: GTF Ss surf. % of Inhib. The method, then:
as §2, §4

Test [10] addresses T4, GTF Ss. Nature of the test: GTF activity in solution, GTF Ss. Format: biochemical, S. sanguinis. The following applies: read-out: GTF Ss sol. % of Inhib. As to the method: as §2, §3
Test [11] addresses T3, GTF D. The experiment in a line: GTF activity in solution, GTF D. The class given is biochemical. To be noted: read-out: GTF D sol. % of Inhib. The method, then: as §2, §3
Test [12] concerns the target T2, GTF B. The experiment in a line: GTF activity in solution, GTF B. Format: biochemical. To be noted: read-out: GTF B sol. % of Inhib. The method, then:
as §2, §3

Setting [13] is: Streptococcus mutans, all strains tested (S. mutans GS-5, UA159, S. sobrinus 6715), read-out: MIC.

Converted amounts (≈) assume the structure as drawn. Read-outs that look alike come from different tables or passages of the source. A value given as a limit tells only on which side of the number the result lay.

T1 sequence (P13470 35-1455): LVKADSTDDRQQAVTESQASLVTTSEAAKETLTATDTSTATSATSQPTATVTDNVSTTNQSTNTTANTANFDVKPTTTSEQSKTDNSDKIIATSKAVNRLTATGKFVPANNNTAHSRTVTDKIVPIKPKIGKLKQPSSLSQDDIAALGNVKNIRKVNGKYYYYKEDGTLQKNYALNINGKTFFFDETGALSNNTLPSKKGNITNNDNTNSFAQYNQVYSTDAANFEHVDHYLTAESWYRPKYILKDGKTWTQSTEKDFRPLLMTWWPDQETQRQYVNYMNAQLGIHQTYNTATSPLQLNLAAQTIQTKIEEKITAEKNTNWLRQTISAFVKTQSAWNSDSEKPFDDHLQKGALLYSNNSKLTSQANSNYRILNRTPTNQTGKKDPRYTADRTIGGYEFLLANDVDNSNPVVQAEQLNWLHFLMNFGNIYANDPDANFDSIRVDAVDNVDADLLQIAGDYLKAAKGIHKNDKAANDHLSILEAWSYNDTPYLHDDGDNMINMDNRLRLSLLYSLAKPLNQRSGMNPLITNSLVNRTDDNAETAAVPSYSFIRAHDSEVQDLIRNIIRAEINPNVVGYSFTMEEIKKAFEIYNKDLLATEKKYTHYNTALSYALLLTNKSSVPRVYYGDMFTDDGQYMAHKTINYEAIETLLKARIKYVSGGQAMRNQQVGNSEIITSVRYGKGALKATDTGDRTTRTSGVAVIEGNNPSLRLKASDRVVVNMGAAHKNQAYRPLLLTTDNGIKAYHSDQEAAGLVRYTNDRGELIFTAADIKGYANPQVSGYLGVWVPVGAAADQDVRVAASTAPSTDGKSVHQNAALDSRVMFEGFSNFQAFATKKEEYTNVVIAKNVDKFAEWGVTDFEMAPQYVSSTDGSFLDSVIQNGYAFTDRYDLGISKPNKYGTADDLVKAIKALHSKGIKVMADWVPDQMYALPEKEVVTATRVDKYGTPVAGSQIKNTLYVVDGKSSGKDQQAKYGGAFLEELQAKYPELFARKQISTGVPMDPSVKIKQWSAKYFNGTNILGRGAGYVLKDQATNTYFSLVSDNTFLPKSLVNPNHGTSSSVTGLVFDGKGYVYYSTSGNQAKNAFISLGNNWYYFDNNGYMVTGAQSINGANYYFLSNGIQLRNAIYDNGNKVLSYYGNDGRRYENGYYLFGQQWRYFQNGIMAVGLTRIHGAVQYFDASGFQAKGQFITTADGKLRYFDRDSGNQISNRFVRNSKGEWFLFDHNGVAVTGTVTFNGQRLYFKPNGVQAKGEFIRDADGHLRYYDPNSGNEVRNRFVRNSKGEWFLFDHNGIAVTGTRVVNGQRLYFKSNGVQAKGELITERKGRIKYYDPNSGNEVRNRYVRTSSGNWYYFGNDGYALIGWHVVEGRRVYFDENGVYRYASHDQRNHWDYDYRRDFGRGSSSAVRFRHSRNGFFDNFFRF

In general, MIC refers to the lowest concentration that inhibits growth of the organism. The term MBC denotes the smallest concentration meeting the test's criterion for killing. Read a high MBC as less potent killing. In the case of `O=c1cc(-c2ccccc2)oc2cc(O)c(O)c(O)c12` [Baicalein], the MIC in test [1] (all strains tested (S. mutans GS-5, UA159, S. sobrinus 6715), read-out: MIC) amounted to 500 µM (≈ 135 µg/mL); in test [2], 500 µM (≈ 135 µg/mL); in test [3], 500 µM (≈ 135 µg/mL); in test [4], 500 µM (≈ 135 µg/mL). The MBC in [2], in test [3] and in test [4] was greater than 500 µM in each case.
Consider `O=C(O)c1ccccc1` [Benzoic acid], for which, in [1] (Streptococcus mutans), the minimal inhibitory concentration (MIC) is greater than 500 µM.
Consider `O=C(O)/C=C/c1ccc(O)c(O)c1` [Caffeic acid], for which the MIC in test [1] (setting [13]) was greater than 500 µM.
On to `COc1cc(/C=C/C(=O)O)ccc1O` [Ferulic acid], for which the minimum inhibitory concentration (MIC) in test [1] (setting [13]) was greater than 500 µM.
Consider `O=c1c(O)c(-c2ccc(O)cc2)oc2cc(O)cc(O)c12` [Kaempferol], for which the inhibition at 125 µM on GTF C [5] was 41.9%; at GTF C [6], 24.2%; at GTF B [7], 9.9%; on GTF D [8], 20.4%; at GTF Ss [9] it was 9.7%; at GTF Ss [10] it was 37.6%. For the same molecule, the values for the inhibition at 125 µM on GTF D [11] and at GTF B [12] were 39.1% and 32.4%, respectively. For the same molecule, the inhibition at 250 µM at GTF C [5] was 82.2%; at GTF C [6] it was 25.8%; at GTF B [7], 27.8%; on GTF D [8] it was 23.5%; on GTF Ss [9], 8.8%; at GTF Ss [10], 43.1%. For the same molecule, the inhibition at 250 µM at GTF D [11] was determined as 76.7%; at GTF B [12], 80.6%. Moreover, the inhibition at 500 µM at GTF C [5] turned out to be 90.2%; at GTF C [6] it was 35.2%; on GTF B [7] it was 40.2%; at GTF D [8], 28.5%; at GTF Ss [9], 19.2%; at GTF Ss [10], 88.9%. Besides, the figures for the inhibition at 500 µM at GTF D [11] and on GTF B [12] were 86.7% and 90.4%, respectively. The molecule also registered a minimal inhibitory concentration (MIC) in test [1] (Streptococcus mutans) greater than 500 µM.
`O=c1cc(-c2ccc(O)c(O)c2)oc2cc(O)cc(O)c12` [Luteolin]: the MIC in test [1] (setting [13]) was greater than 500 µM.

Source of the values: US20040057908A1, “Oral compositions and use thereof” (priority 2003, published 2004).
